Reference: article PMC6155308 (Molecules : A Journal of Synthetic Chemistry and Natural …, 2017)

Target: T1, BpsCAβ (β-carbonic anhydrase) (Burkholderia pseudomallei, UniProt Q63Y17)
T1 construct: gene BPSL0372
Assay: biochemical

T1 sequence (Q63Y17 1-256 limits assumed): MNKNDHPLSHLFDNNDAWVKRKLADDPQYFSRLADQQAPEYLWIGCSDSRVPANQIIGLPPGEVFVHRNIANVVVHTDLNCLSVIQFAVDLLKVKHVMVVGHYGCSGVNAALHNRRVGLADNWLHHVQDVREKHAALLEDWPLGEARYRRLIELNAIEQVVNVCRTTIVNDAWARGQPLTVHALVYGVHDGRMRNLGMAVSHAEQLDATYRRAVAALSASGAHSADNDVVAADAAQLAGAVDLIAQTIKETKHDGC

SMILES	Ki [µM]
CC1(C)O[C@@H]2[C@@H](CO[C@@]3(COS(N)(=O)=O)OC(C)(C)O[C@@H]23)O1 [TPM, topiramate]	> 50
Nc1ccc(S(N)(=O)=O)cc1F [compound 7, 7]	> 50
Cc1ccc(S(N)(=O)=O)cc1 [compound 4, 4]	> 50
Nc1cccc(S(N)(=O)=O)c1 [compound 1, metanilamide]	> 50
Nc1nnc(S(N)(=O)=O)s1 [compound 13, deacetylated derivative of AAZ]	3.06
NS(=O)(=O)c1cc(Cl)cc(Cl)c1O [compound 10, 10]	4.1
Nc1ccc(S(N)(=O)=O)cc1Cl [compound 8, 8]	> 50
CCN[C@H]1CN(CCCOC)S(=O)(=O)c2sc(S(N)(=O)=O)cc21 [BRZ, brinzolamide]	4.27
CC(=O)N=c1sc(S(N)(=O)=O)nn1C [MZA, methazolamide]	0.186
NS(=O)(=O)c1cc(Cl)c(Cl)c(S(N)(=O)=O)c1 [DCP, dichlorophenamide]	0.529
Nc1ccc(S(N)(=O)=O)cc1 [compound 2, sulfanilamide]	3.89
NCc1ccc(S(N)(=O)=O)cc1 [compound 5, 5]	3.9
NS(=O)(=O)c1ccc(S(=O)(=O)Nc2cccc3c(Cl)c[nH]c23)cc1 [IND, indisulam]	4.37
Nc1ccc(S(N)(=O)=O)cc1Br [compound 9, 9]	> 50
Nc1ccc(S(=O)(=O)Nc2nnc(S(N)(=O)=O)s2)cc1 [compound 20, aminobenzolamide]	0.266
Cc1ccc(-c2cc(C(F)(F)F)nn2-c2ccc(S(N)(=O)=O)cc2)cc1 [CLX, celecoxib]	> 50
NS(=O)(=O)Cc1noc2ccccc12 [ZNS, zonisamide]	4.06
NS(=O)(=O)c1cccc(S(N)(=O)=O)c1 [compound 3, 3]	3.17
Cn1nc(S(N)(=O)=O)sc1=N [compound 14, deacetylated derivative of MZA]	2.5
